Assay [1] has as its system S. aureus ATCC 29213 (NB01001). Nature of the assay: MIC, broth microdilution (CLSI). It is filed as cell-based. Particulars: Staphylococcus aureus, ATCC29213; S. aureus ATCC 29213; 35° C., 20 hours; read-out: Antibacterial activity (MIC) NB01001. A general note: Dilution methods test growth across graded concentrations, often in twofold steps.
Assay [2] has as its system P. aeruginosa NB52019 (wild-type PAO1). The assay is described as follows: MIC, broth microdilution (CLSI). It is filed as cell-based. The settings on record: Pseudomonas aeruginosa, PAO1, 20 h; read-out: Antibacterial activity (MIC) NB52019.
Assay [3] deals with E. coli NB27177 (efflux deficient CGSC 11430, ΔtolC732::kan). Nature of the assay: microbe, parasite or virus in culture. Particulars: Escherichia coli, 20 h, read-out: Antibacterial activity (MIC) NB27177. It is filed as cell-based.
Assay [4] concerns P. aeruginosa NB52023 (efflux deficient K1542, ΔmexX ΔmexB). Nature of the assay: microbe, parasite or virus in culture. Particulars: Pseudomonas aeruginosa, 20 h, read-out: Antibacterial activity (MIC) NB52023. It is filed as cell-based.
The target in assay [5] is E. coli DNA topoisomerase IV (Topo IV, ParC-E) (Escherichia coli, UniProt P0AFI2). The assay is described as follows: Decatenation assay of E. coli Topo IV. The settings on record: decatenation activity of E. coli topoIV (ParC-E); read-out: ParC-E IC50 (Enzyme). It is filed as biochemical. As to the method:
Method 2: Decatenation Assay of E. Coli Topo IV
Enzymatic activity of the E. coli DNA topoisomerase IV (Topo IV) reconstituted from its purified subunits was monitored by the decatenation of kinetoplast DNA into minicircles (kDNA, TopoGEN, TG2013-3). To form the functional Topo IV C2E2 heterotetrameric enzyme, equal molar concentrations of the ParC and ParE subunits were combined at high protein concentration (500 nM) and incubated on ice for 1 hour prior to assay start in reaction buffer without ATP or the kDNA. […] The reaction was carried out at 37° C. for 2 hours and terminated by the addition of 2.5 μl of 10× stop solution (0.9% SDS, 50% glycerol, 0.05% bromophenol blue). […] Gels were stained with ethidium bromide (0.5 μg/ml) for 30 minutes and distained in water for 20 minutes. All gels were analyzed using the BIO-RAD ChemiDoc™ XRS^+ with Image Lab 3.0 software. The 50% inhibitor concentration (IC50) was determined as being the compound concentration at which the presence of the kDNA minicircles in the gel was reduced by 50% from the DMSO drug free control (Microsoft Excel 2010 IDBS XLfit, Graph Pad Prism 6).

Assay [6] concerns S. aureus NB01006-AVR005 (gyrA S84L, grlA S80F, grlB E471K). The assay is described as follows: microbe, parasite or virus in culture. It is filed as cell-based. Particulars: Staphylococcus aureus, 20 h, read-out: Antibacterial activity (MIC) NB01006-AVR005.
Assay [7] has as its system P. aeruginosa NB52023-CDK0006 (gyrA T83I, parC S87L). Nature of the assay: microbe, parasite or virus in culture. Particulars: Pseudomonas aeruginosa, 20 h, read-out: Antibacterial activity (MIC) NB52023-CDK0006. It is filed as cell-based.
The test system of assay [8] is E. coli ATCC 25922 (NB27001). Nature of the assay: MIC, broth microdilution (CLSI). It is filed as cell-based. The settings on record: Escherichia coli, ATCC25922; E. coli ATCC 25922; 35° C., 20 hours; read-out: Antibacterial activity (MIC) NB27001.
The target in assay [9] is E. coli DNA gyrase (GyrA-B) (Escherichia coli, UniProt P0AES4). The assay is described as follows: Supercoiling assay of E. coli gyrase. It is filed as biochemical. Particulars: supercoiling activity of E. coli gyrase (GyrA-B); read-out: GyrA-B IC50 (Enzyme). As to the method: Method 1: Supercoiling Assay of E. Coli Gyrase
E. coli DNA gyrase (GyrA-B), sequence (P0AES4 whole entry): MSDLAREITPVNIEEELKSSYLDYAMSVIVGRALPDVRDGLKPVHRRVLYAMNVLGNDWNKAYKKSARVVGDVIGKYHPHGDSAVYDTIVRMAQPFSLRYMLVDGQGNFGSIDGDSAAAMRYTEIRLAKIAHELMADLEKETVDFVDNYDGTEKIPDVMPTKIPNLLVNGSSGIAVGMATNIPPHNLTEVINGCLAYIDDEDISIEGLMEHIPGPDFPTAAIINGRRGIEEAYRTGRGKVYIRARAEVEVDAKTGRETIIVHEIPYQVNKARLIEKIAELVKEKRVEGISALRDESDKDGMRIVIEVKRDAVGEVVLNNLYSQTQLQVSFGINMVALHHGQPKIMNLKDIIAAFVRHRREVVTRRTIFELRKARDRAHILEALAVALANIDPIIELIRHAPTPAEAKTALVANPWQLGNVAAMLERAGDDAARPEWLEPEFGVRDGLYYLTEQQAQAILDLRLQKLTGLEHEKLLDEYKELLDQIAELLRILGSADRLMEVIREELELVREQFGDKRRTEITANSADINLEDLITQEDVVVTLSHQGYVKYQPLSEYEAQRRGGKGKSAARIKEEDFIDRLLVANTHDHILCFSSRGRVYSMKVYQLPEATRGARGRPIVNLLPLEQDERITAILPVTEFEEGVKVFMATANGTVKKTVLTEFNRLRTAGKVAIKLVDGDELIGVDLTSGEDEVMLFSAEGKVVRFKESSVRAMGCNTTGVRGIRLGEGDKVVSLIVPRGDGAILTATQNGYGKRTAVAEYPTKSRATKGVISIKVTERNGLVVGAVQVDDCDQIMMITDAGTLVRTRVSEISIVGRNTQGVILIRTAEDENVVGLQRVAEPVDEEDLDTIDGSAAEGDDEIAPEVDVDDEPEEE
Enzymatic activity of E. coli DNA gyrase reconstituted from its purified subunits was assessed by monitoring the introduction of supercoils into the relaxed plasmid pHOT-1 (TopoGEN, TG2035-3). To form the functional gyrase A2B2 heterotetrameric enzyme, equal molar concentrations of the GyrA and GyrB subunits were combined at high protein concentration (500 nM) and incubated on ice for 1 hour prior to assay start in reaction buffer without ATP or the pHOT-1 plasmid. The reaction mixture (25 μl) contained 10 nM enzyme, 10 ng/μl pHOT-1, 1 mM ATP, 35 mM Tris-HCl pH 7.5, 24 mM KCl, 4 mM MgCl2, 2 mM DTT, 1.8 mM spermidine, 6.5% glycerol, and 100 μg/ml bovine serum albumin. The reaction was carried out at 37° C. for 90 minutes and terminated by the addition of 2.5 μl of 10× stop solution (0.9% SDS, 50% glycerol, 0.05% bromophenol blue). […] Gels were stained with ethidium bromide (0.5 μg/ml) for 30 minutes and destained in water for 20 minutes. All gels were analyzed using the BIO-RAD ChemiDocTm XRS+ with Image Lab 3.0 software. The 50% inhibition concentration (IC50) was determined as being the compound concentration at which the supercoiled band was reduced by 50% from the DMSO drug free control (Microsoft Excel 2010 IDBS XLfit, GraftPad Prism 6).

Counter-ions that a name gives are not always drawn.

E. coli DNA topoisomerase IV (Topo IV, ParC-E), sequence (P0AFI2 whole entry): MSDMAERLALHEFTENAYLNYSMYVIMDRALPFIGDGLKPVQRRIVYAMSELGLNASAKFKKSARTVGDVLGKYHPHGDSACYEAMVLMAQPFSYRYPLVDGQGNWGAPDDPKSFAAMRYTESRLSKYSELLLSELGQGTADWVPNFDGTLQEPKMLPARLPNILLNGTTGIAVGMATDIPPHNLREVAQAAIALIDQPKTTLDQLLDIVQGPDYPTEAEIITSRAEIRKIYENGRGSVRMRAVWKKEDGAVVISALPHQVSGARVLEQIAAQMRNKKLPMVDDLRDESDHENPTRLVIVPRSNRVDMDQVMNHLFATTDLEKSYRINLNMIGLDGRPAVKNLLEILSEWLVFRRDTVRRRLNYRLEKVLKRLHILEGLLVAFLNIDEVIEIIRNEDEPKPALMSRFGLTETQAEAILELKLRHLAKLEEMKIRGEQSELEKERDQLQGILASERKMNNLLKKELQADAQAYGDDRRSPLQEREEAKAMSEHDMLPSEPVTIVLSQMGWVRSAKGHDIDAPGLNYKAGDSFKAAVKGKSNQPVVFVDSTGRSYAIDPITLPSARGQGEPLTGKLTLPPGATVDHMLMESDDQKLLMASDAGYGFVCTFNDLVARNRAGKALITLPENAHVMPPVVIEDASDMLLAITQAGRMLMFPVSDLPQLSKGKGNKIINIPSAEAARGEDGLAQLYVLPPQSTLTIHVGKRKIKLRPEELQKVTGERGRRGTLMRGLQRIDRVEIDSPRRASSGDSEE
E. coli DNA topoisomerase IV (Topo IV, ParC-E), sequence (P20083 whole entry, further chain): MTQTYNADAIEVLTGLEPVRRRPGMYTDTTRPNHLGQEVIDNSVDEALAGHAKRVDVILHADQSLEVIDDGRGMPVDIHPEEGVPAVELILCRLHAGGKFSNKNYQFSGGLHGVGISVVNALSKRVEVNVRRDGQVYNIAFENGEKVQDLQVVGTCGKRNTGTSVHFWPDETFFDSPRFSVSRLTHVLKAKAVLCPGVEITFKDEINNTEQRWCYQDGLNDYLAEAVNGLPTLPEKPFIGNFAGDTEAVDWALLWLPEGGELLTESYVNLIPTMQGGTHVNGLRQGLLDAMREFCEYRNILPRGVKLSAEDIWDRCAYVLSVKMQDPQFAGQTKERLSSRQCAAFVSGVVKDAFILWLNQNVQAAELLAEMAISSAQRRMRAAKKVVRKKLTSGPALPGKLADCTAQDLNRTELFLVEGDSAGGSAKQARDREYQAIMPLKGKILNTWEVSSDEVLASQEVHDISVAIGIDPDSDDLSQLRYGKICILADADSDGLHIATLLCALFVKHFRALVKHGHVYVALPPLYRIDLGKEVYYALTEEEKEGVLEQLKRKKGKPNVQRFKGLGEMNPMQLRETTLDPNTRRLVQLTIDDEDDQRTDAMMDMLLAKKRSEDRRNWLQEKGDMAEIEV

For `Cc1c(N2CC[C@@H]([C@H](C)N)C2)ccc2c(OCCN(C)C)cc(=O)n(C3CC3)c12` [Example 74, 7-((R)-3-((S)-1-aminoethyl)pyrrolidin-1-yl)-1-cyclopropyl-4-(2-(dimethylamino)ethoxy)-8-methylquinolin-2(1H)-one TFA salt], the MIC in assay [1] was 1 µg/mL; in assay [2], 32 µg/mL; in assay [3] it was 0.25 µg/mL; in assay [4], 8 µg/mL; in assay [6], 2 µg/mL; in [7], 16 µg/mL. In addition, in assay [8], the MIC is 8 µg/mL. Further, the IC50 (in general, the point on the concentration scale where inhibition reaches its midpoint) in assay [5] was determined as 240 nM; in assay [9] it was 310 nM.

For the compound `Cc1c(N2CC[C@@H]([C@H](C)N)C2)ccc2ccc(=O)n(C3CC3)c12` [Example 76, 7-((R)-3-((S)-1-aminoethyl)pyrrolidin-1-yl)-1-cyclopropyl-8-methylquinolin-2(1H)-one trifluoroacetic acid salt], the MIC in assay [1] is 0.25 µg/mL; in [2], 32 µg/mL; in assay [3], 0.125 µg/mL; in assay [4] it was 8 µg/mL; in assay [6], 0.5 µg/mL; in assay [7] it was 16 µg/mL. Further, the MIC in assay [8] turned out to be 4 µg/mL. For the same compound, the IC50 in assay [5] worked out at 38500 nM; in assay [9] it was 6800 nM.

Turning to `Cc1c(N2CC[C@@H]([C@H](C)N)C2)ccc2cc(O)c(=O)n(C3CC3)c12` [Example 79, 7-((R)-3-((S)-1-aminoethyl)pyrrolidin-1-yl)-1-cyclopropyl-3-hydroxy-8-methylquinolin-2(1H)-one TFA salt], the MIC was 2 µg/mL in [1]; more than 32 µg/mL in assay [2]; 1 µg/mL in assay [3]; more than 32 µg/mL in assay [4]; 8 µg/mL in assay [6]; more than 32 µg/mL in [7]. For the same compound, in [8], the MIC is 8 µg/mL. Besides, the IC50 was 1840 nM in [5] and 2440 nM in assay [9].

The record behind these values is patent US10160726B2, “Quinolone derivatives as antibacterials” (priority 2014, dated 2018).
